In series [1] the target is hBChE from freshly collected human plasma (Homo sapiens, UniProt P06276). Nature of the series: Ex vivo anticholinesterase activity. Format: biochemical.
Series [2] deals with hAChE from freshly collected human erythrocytes (Homo sapiens, UniProt P22303). As to the kind of experiment: Ex vivo anticholinesterase activity. Format: biochemical.
For series [3] the following is noted: human plasma, following a Posiphen 40 mg dose; cited from earlier work.

In general, IC50 refers to the concentration that gives 50% inhibition. Higher therefore signals lower potency.

Structures are written as SMILES.

hAChE from freshly collected human erythrocytes, sequence (P22303 32-617 isoform P22303-2 limits assumed): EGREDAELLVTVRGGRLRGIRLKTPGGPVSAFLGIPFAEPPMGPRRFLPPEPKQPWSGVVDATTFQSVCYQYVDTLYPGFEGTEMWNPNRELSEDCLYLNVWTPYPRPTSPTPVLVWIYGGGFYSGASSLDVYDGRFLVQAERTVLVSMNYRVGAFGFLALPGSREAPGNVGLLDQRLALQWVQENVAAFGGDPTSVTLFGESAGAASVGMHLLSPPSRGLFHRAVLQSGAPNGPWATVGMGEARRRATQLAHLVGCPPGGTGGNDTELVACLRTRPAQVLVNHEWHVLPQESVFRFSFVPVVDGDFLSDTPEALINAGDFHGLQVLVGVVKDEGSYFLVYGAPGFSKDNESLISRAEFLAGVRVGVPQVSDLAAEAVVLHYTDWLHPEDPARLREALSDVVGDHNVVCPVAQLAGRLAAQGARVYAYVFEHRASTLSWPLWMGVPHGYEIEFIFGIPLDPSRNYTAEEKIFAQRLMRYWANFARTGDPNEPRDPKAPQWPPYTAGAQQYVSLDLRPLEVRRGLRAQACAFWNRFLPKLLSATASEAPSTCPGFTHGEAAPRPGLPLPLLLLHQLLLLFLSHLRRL
hBChE from freshly collected human plasma, sequence (P06276 29-602): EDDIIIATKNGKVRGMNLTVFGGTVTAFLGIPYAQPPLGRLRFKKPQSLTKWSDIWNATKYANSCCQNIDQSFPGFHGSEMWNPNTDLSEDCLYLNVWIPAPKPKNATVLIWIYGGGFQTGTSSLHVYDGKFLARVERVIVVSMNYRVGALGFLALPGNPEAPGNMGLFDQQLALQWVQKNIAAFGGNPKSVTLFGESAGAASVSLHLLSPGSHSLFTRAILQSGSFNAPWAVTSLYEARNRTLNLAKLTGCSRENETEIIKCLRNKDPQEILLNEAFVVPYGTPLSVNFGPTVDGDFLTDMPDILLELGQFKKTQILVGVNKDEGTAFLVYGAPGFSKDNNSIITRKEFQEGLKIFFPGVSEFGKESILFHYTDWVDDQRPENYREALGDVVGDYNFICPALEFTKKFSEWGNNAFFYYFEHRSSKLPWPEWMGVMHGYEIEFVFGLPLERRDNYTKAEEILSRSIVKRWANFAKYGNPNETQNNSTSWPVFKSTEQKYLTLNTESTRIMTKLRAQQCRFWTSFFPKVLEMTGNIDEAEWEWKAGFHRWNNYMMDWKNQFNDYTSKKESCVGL

In series [1], `CN1CC[C@@]2(C)c3cc(OC(=O)Nc4ccccc4)ccc3N(C)[C@@H]12` [Phenserine, reference compound] gave an IC50 of 1.38 ± 0.24 µM.
For the molecule `CN1CC[C@]2(C)c3cc(OC(=O)Nc4ccccc4)ccc3N(C)[C@H]12` [Posiphen], the IC50 in series [2] and in series [1] was over 10 µM each time. Besides, in series [2] (wet lab evaluation, human AChE), the “AChE inhibitory action (in words)” value is “lacks AChE inhibitory action”. For the same molecule, in series [3], the “plasma concentration CMax” value is 118.5 ng/mL.
